Assays:
[1] = system: ulceration induced by exposure to stress (restraint and water immersion); test: Effect on the ulceration induced by exposure to stress (restraint and water immersion); assay type: in vivo, male Wistar strain rats; settings: ulcer index = sum of length (mm) of lesions
Experimental: [I] Effect on the ulceration induced by exposure to stress (restraint and water immersion): Male Wistar strain rats (weighing, about 200 g) were placed in a stress cage which served to immobilize the animals therein and then immersed in a water bath of 23° C. to the height of xiphoid of the animals according to the method of Takagi et al. [cf. Takagi, K. and Okabe, S., Japan. J. Pharmacol., 18, 9 (1968)]. After 20 hours, the animals were sacrificed and the stomach was removed. The stomach was inflated with 13 ml of saline and placed in 5% formalin solution for 5 minutes. After washing with saline, the stomach was cut open along the greater curvature and the length (mm) of each lesion in the glandular portion was measured using a dissecting microscope (×12). The sum of the length (mm) of each lesions in a stomach was indicated as an ulcer index. In case of reference experiment using butylscopolamine bromide, a photograph of the mucosal surface of stomach was taken after the stomach was treated in the same manner as described above. The photograph was magnified by nine times, and the sum of the area (mm^2) of each lesions in a stomach was indicated as an ulcer index. The ulcer index in drug treated groups was compared with that in control group, and thereby, inhibitory percentage was calculated and then ED50 value, i.e., the dose required for 50% inhibition of the ulcer index, was determined by the usual graphic method. Drugs to be tested were suspended in 0.5% tragacanth solution and administered orally 30 minutes before the immersion. In the control group, a vehicle (0.5% tragacanth solution) was administered.

[2] = system: ulceration induced by pylorus-ligation; test: Effect on the ulceration induced by pylorus-ligation in rats; assay type: in vivo, male Wistar strain rats
Experimental: [II] Effect on the ulceration induced by pylorus-ligation in rats: Male Wistar strain rats (weighing about 190 g) were fasted for 48 hours before experiment. The pylorus of each rat was ligated under ether anaesthesia according to the method of Shay et al. [cf. Shay, H., et al., Gastroenterology, 5, 43-61 (1945)]. Each of the animals was then allowed to stand abstained from food and water in a cage. After 18 hours, the animals were sacrificed under ether anaesthesia, and the stomachs were removed and cut open along the greater curvature. […] 4: marked ulcers more than two 5: perforated ulcer The ulcer index in drug treated groups was compared to that in the control group, and thereby, the inhibitory percentage was calculated and then ED50, i.e. the dose required for 50% inhibition of ulcer index, was determined by the usual graphic method. Drugs to be tested were suspended in 0.5% tragacanth solution and administered 30 minutes before the ligation. In the control group, a vehicle (0.5% tragacanth solution) was administered.

gastric secretion = test: Effect on gastric secretion in rats (pylorus ligation, total acid content); assay type: in vivo, male Wistar strain rats
Experimental: [III] Effect on gastric secretion in rats: Male Wistar strain rats (weighing, about 200 g) were fasted for 24 hours before experiment. The pylorus was ligated under ether anaesthesia. Four hours after the ligation, the stomach was removed under ether anaesthesia. The gastric content was collected and centrifuged, and the secretory volume, pH and acid content of the supernatant were measured. The acid content was measured by titrating to pH 7.0 with 0.02N NaOH using pH meter (Hitachi Horiba, M-5). The total acid content of the drug treated groups was compared with that of the control group, and thereby, the reduction percentage of acid content was calculated and then ED50, i.e. the dose required for 50% reduction of acid content, was determined by the usual graphic method. Drugs to be tested were suspended in 0.5% tragacanth solution and administered orally 30 minutes before the ligation. In the control group, a vehicle (0.5% tragacanth solution) was administered.

pupil size = test: Mydriatic action in rats; assay type: in vivo, male Wistar strain rats; settings: for Percent mydriasis: one hour after administration, 3 mm dilation = 100 percent
Source text: [IV] Mydriatic action in rats:
Male Wistar strain rats (weighing, 150-200 g) were used. Pupil size of the animals was twice measured microscopically just before and one hour after administration of drugs at a distance of 30 cm from the source of a constant light (30 W fluorescent light) according to the method of Pulewka [cf. Arch. exp. Path. U. Pharmakol., 168, 307 (1932)]. Based on the change between the first measured pupil size and the second measured pupil size, mydriasis percentage was calculated provided that mydriasis percentage is supposed to be 100 percent in case of 3 mm dilation of pupil size in diameter. Drugs to be tested were suspended in 0.5% tragacanth solution and administered. In the control group, a vehicle (0.5% tragacanth solution) was administered.

[3] = Toxicological study, LD50 mouse; settings: in vivo, po, Mouse (ICR strain)
Experimental: (§1) Further, the toxicological study was conducted according to the conventional method on Compound B. The results are shown in Table 5.

[4] = Toxicological study, LD50 rat; settings: in vivo, po, Rat (SD strain)
Experimental: as §1

[5] = Conversion after oral administration; assay type: in vivo; settings: orally administered
[6] = U.S. Pat. No. 4,237,135 and U.K. Pat. No. 2,017,698; cited from earlier work
[7] = U.S. Pat. No. 4,237,135 and U.K. Pat. No. 2,017,698; cited from earlier work; remark: listed apart in the source
[8] = system: mouse-killing behavior of olfactory bulb-ablated rats; settings: U.S. Pat. No. 4,237,135 and U.K. Pat. No. 2,017,698; cited from earlier work
[9] = system: brain noradrenaline turnover; settings: U.S. Pat. No. 4,237,135 and U.K. Pat. No. 2,017,698; cited from earlier work
[10] = U.S. Pat. No. 4,237,135 and U.K. Pat. No. 2,017,698; cited from earlier work; remark: listed apart in the source

## CCN1CCN(c2cc(-c3ccccc3)c3ccccc3n2)CC1.O=C(O)/C=C\C(=O)O.O=C(O)/C=C\C(=O)O [Compound B, 2-(4-ethyl-1-piperazinyl)-4-phenylquinoline dimaleate]
[1]; 1 mg/kg p.o.
  Ulcer index Inhibitory %: 44.5%
[1]; 2 mg/kg p.o.
  Ulcer index Inhibitory %: 66.6%
[1]; 5 mg/kg p.o.
  Ulcer index Inhibitory %: 90.1%
[1]; Rattus norvegicus, po, 30 minutes before immersion, rats, read-out: ED50 (dose required for 50% inhibition of the ulcer index)
  ED50: 1.2 mg/kg
[2]; 5 mg/kg p.o.
  Ulcer index Inhibitory %: 0%
[2]; 10 mg/kg p.o.
  Ulcer index Inhibitory %: 28.6%
[2]; 20 mg/kg p.o.
  Ulcer index Inhibitory %: 57.1%
[2]; 50 mg/kg p.o.
  Ulcer index Inhibitory %: 78.6%
[2]; Rattus norvegicus, po, 30 minutes before ligation, rats, 18 hours, ulcer index 0 to 5, read-out: ED50 (dose required for 50% inhibition of ulcer index)
  ED50: 19 mg/kg
Gastric secretion; 0.5 mg/kg p.o.
  Total acid content Reduction %: 27.8%
Gastric secretion; 1 mg/kg p.o.
  Total acid content Reduction %: 24.0%
Gastric secretion; 2 mg/kg p.o.
  Total acid content Reduction %: 47.8%
Gastric secretion; 5 mg/kg p.o.
  Total acid content Reduction %: 60.2%
Gastric secretion; Rattus norvegicus, po, 30 minutes before ligation, rats, 4 hours after ligation, read-out: ED50 (dose required for 50% reduction of acid content)
  ED50: 2.8 mg/kg
Pupil size; 5 mg/kg p.o.
  Percent mydriasis: 0%
Pupil size; 10 mg/kg p.o.
  Percent mydriasis: 2.7%
Pupil size; 20 mg/kg p.o.
  Percent mydriasis: 4.7%
Pupil size; 50 mg/kg p.o.
  Percent mydriasis: 2.0%
Pupil size; 100 mg/kg p.o.
  Percent mydriasis: 2.7%
Pupil size; rats, up to 100 mg/kg
  mydriatic action (in words): did entirely not show any mydriatic action even in a dose of 100 mg/kg
[3]
  LD50: ~1200 mg/kg
[4]
  LD50: ~3600 mg/kg

## CCN1CCN(c2cc(-c3ccccc3)c3ccccc3n2)CC1 [2-(4-ethyl-1-piperazinyl)-4-phenylquinoline]
[5]
  conversion on oral administration: partially converted into 2-(1-piperazinyl)-4-phenylquinoline
[6]
  anti-reserpine activity: showed anti-reserpine activity
[7]
  anti-tetrabenazine activity: anti-tetrabenazine activity
[8]
  suppression of mouse-killing behavior of olfactory bulb-ablated rats: suppression of mouse-killing behavior of olfactory bulb-ablated rats
[9]
  inhibition of brain noradrenaline turnover: inhibition of brain noradrenaline turnover
[10]
  anti-tremorine activity: has also anti-tremorine activity

From patent publication US4677107A, “Anti-peptic ulcer agent” (Dainippon Pharmaceutical Co., Ltd., priority 1983, dated 1987)
